Assay results taken from patent US20220380430A1, “Non-Transgenic Functional Rescue of Neuropeptides” (Worcester Polytechnic Institute, priority 2021, published 2022).

Key:
trh-1 mutant worms = experiment: Size comparison (body volume) after rescue-by-feeding; type: in vivo, C. elegans; settings: for restoration of body volume: trh-1 lof animals fed E. coli expressing peptide, in words; for Relative Body Volume: trh-1 mutant animals fed peptide, N2 set as 100%
Procedure: All animals were maintained on bacterial lawns of OP50 E. coli, at 20° C., on NGM agar plates until the start of experiments. Mutant or control animals were transferred onto lawns of DH5α E. coli expressing either scramble peptide or the rescue peptide-of-interest on NGM plates containing […] AMP and 1 mM IPTG. Animals were reared on the peptide-expressing lawns for at least 48 hours at 20° C. before assaying for rescue of mutant phenotype at the appropriate developmental stage.
The body morphology different of trh-1 mutants was compared to wild-type worms by body volume measurements. Wild-type (N2) and trh-1 animals were synchronized by embryonic starvation following alkaline hypochlorite protocols. Ten gravid hermaphrodites from OP50 E. coli plates were picked into 30 μL drops of alkaline hypochlorite solution (20% sodium hypochlorite, 500 mM KOH). Two drops were placed on either side of an unseeded NGM plate, resulting in 20 animals per plate. Plates were then incubated for 24 hours at 20° C. before L1 larval animals washed with 1 mL M9 (22 mM KH2PO4, 42.25 mM Na2HPO4, 85.5 mM NaCl, 1 mM MgSO4) per unseeded NGM plate. Allow L1 worms to settle into pellet before removing M9 supernatant. Repeat washing step 2 more times. Plate worm pellet onto NGM with […] AMP and 1 mM IPTG plates containing 75 μL peptide lawns.
After at 48 hours at 20° C., animals were recorded using a Basler acA2500-14 uM camera using WormLab software (WormLab 4.1; MBF Bioscience, 2017) for 65 seconds. Worm length, width, and area were calculated within the WormLab software (FIG. 5C-FIG. 5H). As the WormLab worm width metric is an average of cross-sections throughout the length of each worm, this was used to calculate the volume of a worm as a cylinder, with the Volume=π*(0.5*width)^2*length (FIG. 2A-FIG. 2B, FIG. 5A-FIG. 5B).
Two to four plates were recorded per day for at least three days to generate data sets. Control plates of N2 and trh-1 animals raised on the scramble peptide were grown alongside every rescue feeding. Each “worm track” was considered an n=1. Tracks were excluded if (1) worm tracks less than 10 seconds, or (2) worms were further than two standard deviations from the mean metric. Following tests for normality, comparisons were made using either Mann-Whitney tests for direct comparisons between N2 and trh-1 animals reared on OP50, or Kruskal-Wallis non-parametric ANOVAs and Dunn's multiple comparisons tests for animals raised on peptide feeding strains. Comparisons were made for metrics: length (FIG. 5C-FIG. 5D), width (FIG. 5e-FIG. 5F), area (FIG. 5G-FIG. 5H), and volume (FIG. 2A-FIG. 2B, FIG. 5A-FIG. 5B).

C. elegans = experiment: Single worm attraction assay (SWAA) of ascarosides; type: in vivo; settings: males; in words
Procedure: The spot retention assay was adapted to allow for better characterization of individual worm behavior and robust interrogation of attraction to small molecules. The attractiveness of 1 μM ascr #8 (FIG. 11A) were compared across multiple strains of C. elegans (the wild-type N2 strain, the high incidence of male him-5 and him-8 strains, and the chemosensory cilia defective osm-3), using the novel behavioral assay, the single worm attraction assay (SWAA) (FIG. 11A). In this assay, individual animals were placed directly into the spot of the ascaroside cue (A) while simultaneously removing any potential of male-male contact. […] Likewise, a vehicle control (V) is also included, to account of any changes in dwell time that are driven by the components of the vehicle. The outer forty wells of a 48-well suspension culture plate (Olympus Plastics, Cat #: 25-103) were seeded with 200 μL of standard NGM agar. To prepare the plates for the assay, they were acclimated to room temperature, at which point each well was seeded with 65 μL of OP50 E. coli. The assay plates were then transferred to a 37° C. incubator with the lid tilted for 4 h to allow the bacterial culture to dry on the agar. Once the bacterial culture dried, the lid was replaced the plate was stored at 20° C. until used in the assay. Fifty to sixty L4 worms were segregated by sex and stored at 20° C. for 5 h to overnight to be assayed as young adults. 0.8 μL of either vehicle control or ascaroside #8 was placed in the center of the well corresponding to that condition within the quadrant being tested, following a random block design (FIG. 11A). A single worm was placed in each of the 10 wells to be assayed, and the plate was transferred to a light source and camera and recorded for 15 m. […] Raw dwell time values were calculated by subtracting the time a worm exited the cue (center of the well in spatial controls), from the time it entered, as in the SRA. This was determined per visit, and the average dwell time was calculated for each animal in the quadrant. Averages of the four-quadrant means were determined per plate, and a minimum of five plates were assayed per strain/condition. The mean raw dwell time across five plates was calculated and used for statistical analyses and graphical display. […] An “attractive visit” was first determined for each plate as any visit greater than two standard deviations above the mean dwell time within the vehicle control for that plate. Any individual visit meeting this threshold was scored as a “1”, and any below was scored a “0”. The percent visits per-worm that were attractive was determined, and the average of each quadrant taken. […] The average percent of attractive visits across five plates was calculated and used for statistical analyses and graphical display.

Compound	restoration of body volume (trh-1 mutant worms)	Relative Body Volume (trh-1 mutant worms) [%]	male attraction in the SWAA (C. elegans)
ANELF-NH2 [TRH-1B]	complete restoration of wild-type body volume	~100	–
GRELF-NH2 [TRH-1A]	complete restoration of wild-type body volume	~100	–
C[C@H](CCCC/C=C/C(=O)O)O[C@@H]1O[C@@H](C)[C@H](O)C[C@H]1O [ascr #3]	–	–	maintains its ability to attract males in the SWAA
